# From article PMC12440824, “Chimeric deubiquitinase engineering reveals structural basis for specific inhibition of the mitophagy regulator USP30” (Nature Structural & Molecular Biology, 2025)
# Columns and labels:
# [1] = tested on: T1, Flag-tagged, full-length USP30 (wild type) in HEK293 cells; experiment: Cellular ubiquitin probe competition, overexpressed Flag-tagged full-length USP30 wild type; assay type: cell-based, human; details: 2 µM compound, 2 h; HA-Ub-PA probe in lysate
# T1 construct: C-terminally Flag-tagged human USP30 (1–517) was used for transient transfection; expressed in transfected cells; host or cells: HEK293, transient transfection of a pOPINE vector
# Experimental: HEK293 cells (8 × 10^5 cells per well) were seeded in six-well plates and cultivated for 24 h. PEI transfecting reagent (Polysciences) was pre-incubated for 10 min with the vectors in 200 μl Opti-MEM medium (2 µg DNA per well). Cells were transfected and incubated for 48 h. Following the treatment with either compounds or DMSO in fresh medium for an additional 2 h, cells were processed as described below. Cells were seeded at 8 × 10^5 cells per well and grown for 48 h. […] The medium was aspirated, and cells were washed once with ice-cold PBS. Cells were collected by scraping in lysis buffer (150 mM NaCl, 250 mM sucrose, 50 mM Tris, pH 8.0, 5 mM TCEP) supplemented with EDTA-free complete protease inhibitor cocktail and benzonase. Suspended cells were homogenized by 12 bursts of a microtip probe sonicator (Branson Sonifier 450) at 10% amplitude with pulses of 1 s on ice. Remaining cell debris was separated by centrifugation (20,817g, 5 min, 4 °C). […] After incubation for 10 min at room temperature, reactions were quenched by the addition of 4× reducing LDS sample buffer. Samples were resolved by SDS–PAGE and further analyzed via western blot. Using a Trans-Blot Turbo system (Bio-Rad, 1.0 A, 25 V, 30 min), proteins were blotted onto a nitrocellulose membrane. […]
# USP30 c2 = experiment: Thermal shift assay, USP30 c2; assay type: binding, human; details: 20 μM inhibitor; for ΔTm, USP30 c2: replicates or average
# Experimental: (§1) The thermal stability of USP30 constructs and effects of either inhibitor or Ub-PA binding were determined by thermal shift assays. Inhibitor, Ub-PA and SYPRO orange dye (Sigma, 5,000× stock in DMSO) solutions were prepared in 1× PBS, 4 mM DTT. Inhibitor/Ub-PA was prediluted to 100 µM, and SYPRO orange dye was prediluted to 50× (from the commercial stock). Mixtures of protein, inhibitor/Ub-PA and SYPRO were prepared with inhibitor/Ub-PA at a final concentration of 20 μM, SYPRO at a final concentration of 4× and protein at a final concentration of 2 μM for c1, 4 μM for ch1, ch4 and c2 and 3 μM for ch2 and ch3. Samples were added in triplicate to a white 96-well PCR plate (Bio-Rad). Fluorescence intensity was monitored (excitation, 450–490 nm; emission, 560–580 nm) at a gradient of 20–90 °C (increment of 0.3 °C, hold for 5 s before read) on a real-time PCR system (Bio-Rad).
# USP30^ch3 F453Y = USP30^ch3 F453Y (Homo sapiens, UniProt Q70CQ3, F453Y, form not given); experiment: Ub–RhoG cleavage enzyme inhibition assay, chimera 3 F453Y; assay type: biochemical; parameters: USP30ch3 F453Y activity / USP30ch3 F453Y activity (ED Fig. 7e series): scale not given here; details: for reduction of inhibition potency by F453Y substitution (specificity window vs WT): USP30^ch3 F453Y vs WT; for USP30ch3 F453Y activity (ED Fig. 7e series) / USP30ch3 F453Y activity: mean n=3; for USP30ch3 F453Y activity: Fig. 4e,g
# Experimental: (§2) Enzyme kinetics were performed in black, low-volume, non-binding-surface 384-well plates. […] Next, 10 µl of 2× enzyme solution was added in triplicate to the plate. The reaction was started by adding 10 µl of 2× substrate solution. […] Inhibitor solution (4×) was added to 4× enzyme solution to create a 2× enzyme–inhibitor mixture. Next, 10 µl of this 2× enzyme–inhibitor mixture was then added to the plate in triplicate, and the plate was incubated at room temperature for 90 min. The reaction was started by adding 10 µl of 2× Ub–RhoG substrate. […] Data were analyzed with GraphPad Prism.
# USP30^ch1 [2] = target: T2, USP30^ch1 (Homo sapiens, UniProt Q70CQ3); experiment: Thermal shift assay, USP30 ch1; assay type: binding; details: 20 μM inhibitor
# Experimental: as §1
# USP30 = tested on: USP30; parameters: method as in PMID 37385347; details: ‘pseudo-covalent’ binding mode proposed; cited from earlier work
# USP30^ch1 [3] = target: T2, USP30^ch1; experiment: Ub–RhoG cleavage enzyme inhibition assay, chimera 1; assay type: biochemical; parameters: scale not given here; details: mean n=3
# Experimental: as §2
# USP30^ch3 = USP30^ch3 (Homo sapiens, UniProt Q70CQ3); experiment: Thermal shift assay, USP30 ch3; assay type: binding; details: 20 μM inhibitor
# Experimental: as §1
# recombinant USP30 = details: read-out: Ub–Rho IC50 against recombinant USP30; cited from earlier work
# other DUBs = details: at 100 µM; cited from earlier work
# USP30^ch3 I154A = USP30^ch3 I154A (Homo sapiens, UniProt Q70CQ3, I154A, form not given); experiment: Ub–RhoG cleavage enzyme inhibition assay, chimera 3 I154A; assay type: biochemical; details: mean n=3
# Experimental: as §2
# USP30^ch3 F157A = USP30^ch3 F157A (Homo sapiens, UniProt Q70CQ3, F157A, form not given); experiment: Ub–RhoG cleavage enzyme inhibition assay, chimera 3 F157A; assay type: biochemical; details: mean n=3
# Experimental: as §2
# Chain of USP30^ch3 F157A (Q70CQ3 64-502 F157A, form open): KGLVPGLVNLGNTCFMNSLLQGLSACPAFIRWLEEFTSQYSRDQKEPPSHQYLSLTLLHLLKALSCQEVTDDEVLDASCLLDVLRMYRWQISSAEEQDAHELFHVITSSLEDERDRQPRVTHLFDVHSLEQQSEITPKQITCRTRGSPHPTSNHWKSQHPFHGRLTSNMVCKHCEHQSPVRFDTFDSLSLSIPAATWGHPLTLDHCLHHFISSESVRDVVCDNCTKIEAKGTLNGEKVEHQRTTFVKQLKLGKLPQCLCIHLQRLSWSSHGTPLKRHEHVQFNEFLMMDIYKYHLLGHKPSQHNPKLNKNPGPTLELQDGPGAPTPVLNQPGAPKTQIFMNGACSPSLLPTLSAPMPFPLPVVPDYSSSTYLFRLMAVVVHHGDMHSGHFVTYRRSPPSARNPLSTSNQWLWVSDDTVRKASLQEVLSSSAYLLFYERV
# Chain of USP30^ch3 F157A (P54578 248-318 partner, form open): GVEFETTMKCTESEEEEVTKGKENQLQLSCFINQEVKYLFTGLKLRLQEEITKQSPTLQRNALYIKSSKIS
# Chain of USP30^ch3 F157A (Q9P2H5 821-846 partner, form open): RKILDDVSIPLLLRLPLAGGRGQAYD
# T2 sequence (Q70CQ3 64-502): as the sequence (Q70CQ3 64-502 F157A, form open) above, with A94F counted along it
# T2 sequence (Q93009 325-395 partner): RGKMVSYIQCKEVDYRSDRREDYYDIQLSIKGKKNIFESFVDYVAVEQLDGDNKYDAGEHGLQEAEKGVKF
# Chain of USP30^ch3 I154A (Q70CQ3 64-502 I154A, form open): as the sequence (Q70CQ3 64-502 F157A, form open) above, with I91A, A94F counted along it
# Chain of USP30^ch3 I154A (P54578 248-318 partner, form open): as the sequence (P54578 248-318 partner, form open) above
# Chain of USP30^ch3 F453Y (Q70CQ3 64-502 F453Y, form open): as the sequence (Q70CQ3 64-502 F157A, form open) above, with A94F, F390Y counted along it
# Chain of USP30^ch3 F453Y (P54578 248-318 partner, form open): as the sequence (P54578 248-318 partner, form open) above
# Chain of USP30^ch3 (Q70CQ3 64-502): as the sequence (Q70CQ3 64-502 F157A, form open) above, with A94F counted along it
# Chain of USP30^ch3 (P54578 248-318 partner): as the sequence (P54578 248-318 partner, form open) above
structure (smiles),measurement,setting,value
CC(C)(CO)NS(=O)(=O)c1ccc(NC(=O)[C@H](Cc2ccccc2)NC(=O)c2ccc(F)cc2)cc1 [NK036],probe labeling of wild-type Flag-USP30,[1],abolished probe labeling
same,"Tm in presence of compound, USP30 c2",USP30 c2,58.2 °C
same,"ΔTm, USP30 c2",USP30 c2,7.5 °C
same,reduction of inhibition potency by F453Y substitution (specificity window vs WT),USP30^ch3 F453Y,more than two orders of magnitude
same,"Tm in presence of compound, USP30^ch1",USP30^ch1 [2],55.2 °C
CC(C)(C)NS(=O)(=O)c1ccc(NC(=O)[C@H](Cc2ccccc2)NC(=O)c2ccc(F)cc2)cc1 [compound 39],probe labeling of wild-type Flag-USP30,[1],abolished probe labeling
same,off-rate,USP30,exceptionally slow off-rate
same,"Tm in presence of compound, USP30 c2",USP30 c2,58.5 °C
same,"ΔTm, USP30 c2",USP30 c2,7.8 °C
same,USP30ch1 activity,USP30^ch1 [3]; inhibitor 0.0015625 nM,0.9737
same,USP30ch1 activity,USP30^ch1 [3]; inhibitor 0.00625 nM,0.9837
same,USP30ch1 activity,USP30^ch1 [3]; inhibitor 0.025 nM,0.8913
same,USP30ch1 activity,USP30^ch1 [3]; inhibitor 0.1 nM,0.7529
same,USP30ch1 activity,USP30^ch1 [3]; inhibitor 0.39 nM,0.5726
same,USP30ch1 activity,USP30^ch1 [3]; inhibitor 1.56 nM,0.3796
same,USP30ch1 activity,USP30^ch1 [3]; inhibitor 6.25 nM,0.2212
same,USP30ch1 activity,USP30^ch1 [3]; inhibitor 25 nM,0.1115
same,USP30ch1 activity,USP30^ch1 [3]; inhibitor 100 nM,0.04824
same,USP30ch1 activity,USP30^ch1 [3]; inhibitor 400 nM,0.02114
same,USP30ch1 activity,USP30^ch1 [3]; inhibitor 1600 nM,0.0058
same,"Tm in presence of compound, USP30^ch3",USP30^ch3,61.5 °C
same,IC50,recombinant USP30,2 to 20 nM
same,inhibition of other DUBs in a panel of recombinant enzymes,other DUBs,no other DUB being inhibited
same,reduction of inhibition potency by F453Y substitution (specificity window vs WT),USP30^ch3 F453Y,three orders of magnitude
same,USP30ch3 F453Y activity (ED Fig. 7e series),USP30^ch3 F453Y; inhibitor 0.001563 nM,1.055
same,USP30ch3 F453Y activity,USP30^ch3 F453Y; inhibitor 0.001563 nM,0.9971
same,USP30ch3 F453Y activity (ED Fig. 7e series),USP30^ch3 F453Y; inhibitor 0.00625 nM,1.076
same,USP30ch3 F453Y activity,USP30^ch3 F453Y; inhibitor 0.00625 nM,1.054
same,USP30ch3 F453Y activity (ED Fig. 7e series),USP30^ch3 F453Y; inhibitor 0.025 nM,1.018
same,USP30ch3 F453Y activity,USP30^ch3 F453Y; inhibitor 0.025 nM,1.004
same,USP30ch3 F453Y activity (ED Fig. 7e series),USP30^ch3 F453Y; inhibitor 0.1 nM,0.9989
same,USP30ch3 F453Y activity,USP30^ch3 F453Y; inhibitor 0.1 nM,0.9561
same,USP30ch3 F453Y activity (ED Fig. 7e series),USP30^ch3 F453Y; inhibitor 0.39 nM,0.8995
same,USP30ch3 F453Y activity,USP30^ch3 F453Y; inhibitor 0.39 nM,0.9204
same,USP30ch3 F453Y activity (ED Fig. 7e series),USP30^ch3 F453Y; inhibitor 1.56 nM,0.9776
same,USP30ch3 F453Y activity,USP30^ch3 F453Y; inhibitor 1.56 nM,0.9185
same,USP30ch3 F453Y activity (ED Fig. 7e series),USP30^ch3 F453Y; inhibitor 6.25 nM,0.9466
same,USP30ch3 F453Y activity,USP30^ch3 F453Y; inhibitor 6.25 nM,0.9079
same,USP30ch3 F453Y activity (ED Fig. 7e series),USP30^ch3 F453Y; inhibitor 25 nM,0.9111
same,USP30ch3 F453Y activity,USP30^ch3 F453Y; inhibitor 25 nM,0.8377
same,USP30ch3 F453Y activity (ED Fig. 7e series),USP30^ch3 F453Y; inhibitor 100 nM,0.8886
same,USP30ch3 F453Y activity,USP30^ch3 F453Y; inhibitor 100 nM,0.7744
same,USP30ch3 F453Y activity (ED Fig. 7e series),USP30^ch3 F453Y; inhibitor 400 nM,0.7448
same,USP30ch3 F453Y activity,USP30^ch3 F453Y; inhibitor 400 nM,0.5461
same,USP30ch3 F453Y activity (ED Fig. 7e series),USP30^ch3 F453Y; inhibitor 1600 nM,0.7279
same,USP30ch3 F453Y activity,USP30^ch3 F453Y; inhibitor 1600 nM,0.3171
same,"Tm in presence of compound, USP30^ch1",USP30^ch1 [2],56.1 °C
same,USP30ch3 I154A activity,USP30^ch3 I154A; inhibitor 0.001563 nM,1.024
same,USP30ch3 I154A activity,USP30^ch3 I154A; inhibitor 0.00625 nM,1.056
same,USP30ch3 I154A activity,USP30^ch3 I154A; inhibitor 0.025 nM,0.9999
same,USP30ch3 I154A activity,USP30^ch3 I154A; inhibitor 0.1 nM,1.007
same,USP30ch3 I154A activity,USP30^ch3 I154A; inhibitor 0.39 nM,0.9637
same,USP30ch3 I154A activity,USP30^ch3 I154A; inhibitor 1.56 nM,0.9166
same,USP30ch3 I154A activity,USP30^ch3 I154A; inhibitor 6.25 nM,0.8225
same,USP30ch3 I154A activity,USP30^ch3 I154A; inhibitor 25 nM,0.6606
same,USP30ch3 I154A activity,USP30^ch3 I154A; inhibitor 100 nM,0.4173
same,USP30ch3 I154A activity,USP30^ch3 I154A; inhibitor 400 nM,0.274
same,USP30ch3 I154A activity,USP30^ch3 I154A; inhibitor 1600 nM,0.2192
same,USP30ch3 F157A activity,USP30^ch3 F157A; inhibitor 0.001563 nM,0.978
same,USP30ch3 F157A activity,USP30^ch3 F157A; inhibitor 0.00625 nM,1.043
same,USP30ch3 F157A activity,USP30^ch3 F157A; inhibitor 0.025 nM,0.9706
same,USP30ch3 F157A activity,USP30^ch3 F157A; inhibitor 0.1 nM,0.9583
same,USP30ch3 F157A activity,USP30^ch3 F157A; inhibitor 0.39 nM,0.8963
same,USP30ch3 F157A activity,USP30^ch3 F157A; inhibitor 1.56 nM,0.8924
same,USP30ch3 F157A activity,USP30^ch3 F157A; inhibitor 6.25 nM,0.7707
same,USP30ch3 F157A activity,USP30^ch3 F157A; inhibitor 25 nM,0.6122
same,USP30ch3 F157A activity,USP30^ch3 F157A; inhibitor 100 nM,0.362
same,USP30ch3 F157A activity,USP30^ch3 F157A; inhibitor 400 nM,0.2241
same,USP30ch3 F157A activity,USP30^ch3 F157A; inhibitor 1600 nM,0.2066
